In paper PMC12377734 (Proceedings of the National Academy of Sciences of the …, 2025):

What was measured:
Format in all cases: cell-based
hPIEZO1 [1] = molecular target: T1, hPIEZO1 (Homo sapiens, UniProt Q92508); experiment: single-cell Fura-2 Ca2+ imaging; conditions: activator; HEK-P1-KO cells, 1 mM Jedi1, pH 7.2, 1.3 mM Ca2+
mPIEZO1 [2] = molecular target: mPIEZO1 (Mus musculus, UniProt E2JF22); experiment: FLIPR GCaMP6s Ca2+ assay
hPIEZO1 [3] = molecular target: hPIEZO1 (Homo sapiens, UniProt Q92508, L322P); experiment: FLIPR GCaMP6s Ca2+ assay
mPIEZO1 [4] = molecular target: mPIEZO1 (Mus musculus, UniProt E2JF22, L329P); experiment: FLIPR GCaMP6s Ca2+ assay
hPIEZO1 [5] = molecular target: T1, hPIEZO1; experiment: FLIPR GCaMP6s Ca2+ assay

T1 sequence (Q92508 whole entry): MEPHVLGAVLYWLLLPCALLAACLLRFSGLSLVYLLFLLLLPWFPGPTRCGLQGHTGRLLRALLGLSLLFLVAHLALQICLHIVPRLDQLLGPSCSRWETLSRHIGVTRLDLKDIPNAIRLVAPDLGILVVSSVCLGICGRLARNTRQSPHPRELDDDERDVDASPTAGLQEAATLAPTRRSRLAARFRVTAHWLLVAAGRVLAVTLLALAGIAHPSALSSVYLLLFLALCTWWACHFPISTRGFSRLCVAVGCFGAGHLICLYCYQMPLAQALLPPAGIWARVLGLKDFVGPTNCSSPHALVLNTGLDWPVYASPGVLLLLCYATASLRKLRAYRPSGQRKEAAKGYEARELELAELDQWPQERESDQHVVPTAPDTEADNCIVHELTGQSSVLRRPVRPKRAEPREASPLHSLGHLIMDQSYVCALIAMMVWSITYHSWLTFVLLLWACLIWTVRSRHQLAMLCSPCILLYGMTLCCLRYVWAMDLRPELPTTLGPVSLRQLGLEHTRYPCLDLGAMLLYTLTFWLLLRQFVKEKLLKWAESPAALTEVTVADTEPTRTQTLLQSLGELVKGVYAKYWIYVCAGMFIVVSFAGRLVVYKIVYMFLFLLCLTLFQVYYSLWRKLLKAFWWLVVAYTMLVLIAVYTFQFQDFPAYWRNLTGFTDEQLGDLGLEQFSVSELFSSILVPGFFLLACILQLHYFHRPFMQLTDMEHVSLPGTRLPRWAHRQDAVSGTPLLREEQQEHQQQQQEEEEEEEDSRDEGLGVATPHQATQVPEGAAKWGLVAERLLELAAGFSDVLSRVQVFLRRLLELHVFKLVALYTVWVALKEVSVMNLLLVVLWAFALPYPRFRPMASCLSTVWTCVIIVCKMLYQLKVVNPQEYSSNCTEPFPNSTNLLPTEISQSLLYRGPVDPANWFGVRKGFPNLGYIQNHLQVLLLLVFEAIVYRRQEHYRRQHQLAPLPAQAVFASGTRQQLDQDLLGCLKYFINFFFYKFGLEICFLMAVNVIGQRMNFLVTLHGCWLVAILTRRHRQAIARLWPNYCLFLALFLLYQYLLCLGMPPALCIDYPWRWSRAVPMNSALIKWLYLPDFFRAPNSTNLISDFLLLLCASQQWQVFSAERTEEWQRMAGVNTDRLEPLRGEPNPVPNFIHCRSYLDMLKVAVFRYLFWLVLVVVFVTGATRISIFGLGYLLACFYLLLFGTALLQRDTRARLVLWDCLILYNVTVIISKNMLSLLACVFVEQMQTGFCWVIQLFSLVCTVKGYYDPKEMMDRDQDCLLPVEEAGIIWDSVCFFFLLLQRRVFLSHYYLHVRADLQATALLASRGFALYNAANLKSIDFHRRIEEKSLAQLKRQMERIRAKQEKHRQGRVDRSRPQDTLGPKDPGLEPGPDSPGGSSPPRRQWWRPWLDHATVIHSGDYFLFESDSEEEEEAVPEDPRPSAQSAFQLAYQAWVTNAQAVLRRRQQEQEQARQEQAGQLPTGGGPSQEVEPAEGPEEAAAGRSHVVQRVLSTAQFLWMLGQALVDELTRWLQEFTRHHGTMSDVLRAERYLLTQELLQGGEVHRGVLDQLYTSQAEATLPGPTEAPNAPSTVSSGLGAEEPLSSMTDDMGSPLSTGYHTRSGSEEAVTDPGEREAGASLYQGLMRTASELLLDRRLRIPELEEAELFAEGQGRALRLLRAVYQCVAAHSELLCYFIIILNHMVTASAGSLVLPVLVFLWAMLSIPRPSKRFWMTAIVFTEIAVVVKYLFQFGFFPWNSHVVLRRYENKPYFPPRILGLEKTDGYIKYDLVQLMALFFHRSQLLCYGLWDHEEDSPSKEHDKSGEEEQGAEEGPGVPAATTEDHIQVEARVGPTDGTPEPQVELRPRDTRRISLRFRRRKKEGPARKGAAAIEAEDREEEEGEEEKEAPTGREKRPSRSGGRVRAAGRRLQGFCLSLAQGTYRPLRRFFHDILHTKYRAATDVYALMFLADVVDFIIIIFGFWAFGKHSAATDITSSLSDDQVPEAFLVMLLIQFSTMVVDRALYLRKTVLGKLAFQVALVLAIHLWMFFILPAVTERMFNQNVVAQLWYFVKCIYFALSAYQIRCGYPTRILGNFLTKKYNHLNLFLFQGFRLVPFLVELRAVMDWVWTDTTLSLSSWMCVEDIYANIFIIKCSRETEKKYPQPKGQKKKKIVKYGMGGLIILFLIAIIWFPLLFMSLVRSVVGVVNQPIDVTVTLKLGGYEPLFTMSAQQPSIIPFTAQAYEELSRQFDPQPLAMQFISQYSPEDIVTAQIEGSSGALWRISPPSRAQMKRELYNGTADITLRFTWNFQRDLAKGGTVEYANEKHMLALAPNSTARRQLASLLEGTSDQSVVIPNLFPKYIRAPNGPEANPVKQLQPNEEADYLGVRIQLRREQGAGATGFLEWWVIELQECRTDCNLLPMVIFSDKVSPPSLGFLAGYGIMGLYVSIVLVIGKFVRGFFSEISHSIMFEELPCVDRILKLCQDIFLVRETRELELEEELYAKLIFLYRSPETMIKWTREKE
mPIEZO1 (Mus musculus, UniProt E2JF22), sequence (E2JF22 whole entry): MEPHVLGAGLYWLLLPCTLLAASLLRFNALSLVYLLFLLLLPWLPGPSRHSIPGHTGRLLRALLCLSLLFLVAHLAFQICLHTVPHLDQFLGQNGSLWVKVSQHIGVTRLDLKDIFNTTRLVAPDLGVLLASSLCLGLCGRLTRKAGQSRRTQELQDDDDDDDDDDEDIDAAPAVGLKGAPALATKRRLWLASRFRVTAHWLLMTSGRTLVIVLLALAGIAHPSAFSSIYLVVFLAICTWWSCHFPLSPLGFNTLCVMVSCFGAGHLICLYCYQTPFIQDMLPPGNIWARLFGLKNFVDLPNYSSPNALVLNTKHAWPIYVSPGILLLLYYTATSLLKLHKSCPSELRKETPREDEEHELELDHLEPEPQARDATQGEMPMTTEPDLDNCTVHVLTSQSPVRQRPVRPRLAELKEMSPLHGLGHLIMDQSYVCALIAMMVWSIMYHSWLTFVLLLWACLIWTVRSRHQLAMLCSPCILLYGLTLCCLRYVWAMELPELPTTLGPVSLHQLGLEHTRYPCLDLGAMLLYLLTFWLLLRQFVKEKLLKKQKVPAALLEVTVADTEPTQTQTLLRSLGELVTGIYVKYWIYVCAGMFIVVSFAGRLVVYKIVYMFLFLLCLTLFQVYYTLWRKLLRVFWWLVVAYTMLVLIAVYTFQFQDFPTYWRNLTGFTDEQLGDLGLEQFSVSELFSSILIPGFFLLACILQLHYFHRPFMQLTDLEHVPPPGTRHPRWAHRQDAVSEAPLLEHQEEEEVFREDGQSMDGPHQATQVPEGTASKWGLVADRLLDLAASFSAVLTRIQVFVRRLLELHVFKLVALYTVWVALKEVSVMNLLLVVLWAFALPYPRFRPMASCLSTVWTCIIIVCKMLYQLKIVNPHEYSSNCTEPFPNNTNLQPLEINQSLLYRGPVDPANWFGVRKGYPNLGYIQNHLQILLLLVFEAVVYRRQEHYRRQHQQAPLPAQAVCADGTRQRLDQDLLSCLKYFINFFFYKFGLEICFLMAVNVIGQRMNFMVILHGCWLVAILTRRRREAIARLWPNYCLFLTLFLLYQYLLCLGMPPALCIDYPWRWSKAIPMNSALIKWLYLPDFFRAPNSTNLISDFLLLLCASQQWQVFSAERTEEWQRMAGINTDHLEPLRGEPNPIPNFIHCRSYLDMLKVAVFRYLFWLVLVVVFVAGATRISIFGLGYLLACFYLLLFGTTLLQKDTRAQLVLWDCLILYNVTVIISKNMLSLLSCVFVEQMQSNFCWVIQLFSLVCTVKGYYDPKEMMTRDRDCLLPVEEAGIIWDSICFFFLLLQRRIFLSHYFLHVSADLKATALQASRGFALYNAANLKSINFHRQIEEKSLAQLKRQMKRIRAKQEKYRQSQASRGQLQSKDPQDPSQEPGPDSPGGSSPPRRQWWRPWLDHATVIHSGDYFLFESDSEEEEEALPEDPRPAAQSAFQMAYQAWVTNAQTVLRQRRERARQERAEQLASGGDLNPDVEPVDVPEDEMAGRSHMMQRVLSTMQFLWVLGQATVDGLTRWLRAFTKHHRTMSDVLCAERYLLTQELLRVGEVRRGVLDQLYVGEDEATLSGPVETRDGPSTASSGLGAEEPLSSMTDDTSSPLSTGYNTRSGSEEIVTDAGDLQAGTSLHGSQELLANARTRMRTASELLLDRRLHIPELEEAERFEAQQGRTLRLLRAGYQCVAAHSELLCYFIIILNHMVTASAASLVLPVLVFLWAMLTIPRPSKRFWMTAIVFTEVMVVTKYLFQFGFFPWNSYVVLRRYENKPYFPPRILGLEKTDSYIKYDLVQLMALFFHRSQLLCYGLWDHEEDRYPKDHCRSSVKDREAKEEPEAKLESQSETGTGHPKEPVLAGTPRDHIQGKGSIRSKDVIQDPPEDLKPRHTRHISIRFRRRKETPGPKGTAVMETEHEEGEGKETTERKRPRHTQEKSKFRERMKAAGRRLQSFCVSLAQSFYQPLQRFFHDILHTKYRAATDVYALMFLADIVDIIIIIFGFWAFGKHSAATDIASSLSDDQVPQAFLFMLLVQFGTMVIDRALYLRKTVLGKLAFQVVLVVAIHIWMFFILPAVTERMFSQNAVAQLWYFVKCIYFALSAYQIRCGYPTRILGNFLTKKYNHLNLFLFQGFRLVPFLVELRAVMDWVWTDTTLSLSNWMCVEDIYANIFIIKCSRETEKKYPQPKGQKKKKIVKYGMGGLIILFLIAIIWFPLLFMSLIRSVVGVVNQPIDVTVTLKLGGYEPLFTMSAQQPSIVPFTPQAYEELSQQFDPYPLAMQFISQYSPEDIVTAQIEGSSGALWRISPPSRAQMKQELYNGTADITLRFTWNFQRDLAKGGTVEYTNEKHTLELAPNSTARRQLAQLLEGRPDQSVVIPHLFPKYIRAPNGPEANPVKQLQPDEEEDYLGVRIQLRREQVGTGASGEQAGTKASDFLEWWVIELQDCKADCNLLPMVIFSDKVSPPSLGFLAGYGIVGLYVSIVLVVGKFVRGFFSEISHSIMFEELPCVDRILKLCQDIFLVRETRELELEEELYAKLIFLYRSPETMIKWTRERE
mPIEZO1 (Mus musculus, UniProt E2JF22, L329P), sequence (E2JF22 whole entry L329P): as the sequence (E2JF22 whole entry) above, with L329P counted along it
hPIEZO1 (Homo sapiens, UniProt Q92508, L322P), sequence (Q92508 whole entry L322P): as the sequence (Q92508 whole entry) above, with L322P counted along it

EC50 (mPIEZO1 [2]) [µM]	EC50 (hPIEZO1 [3]) [µM]	EC50 (mPIEZO1 [4]) [µM]	EC50 (hPIEZO1 [5]) [µM]	SMILES	Fura-2 ratio change at 1 mM (hPIEZO1 [1])
–	–	–	–	Cc1oc(-c2ccccc2)cc1C(=O)O [Jedi1]	comparable Fura-2 signal increase in response to the application of either Jedi1 or Yoda1
4.3	3.1	1.3	9.1	Clc1cccc(Cl)c1CSc1nnc(-c2cnccn2)s1 [Yoda1]	–
